Patent publication US10322111B2, “Chemokine receptor binding heterocyclic compounds with enhanced efficacy” (Genzyme Corporation, priority 2001, dated 2019)
Read-outs that look alike come from different tables or passages of the source.

What was measured:
[1] = test system: granulocyte macrophage (CFU-GM), erythroid (BFU-E), and multipotential (CFU-GEMM) progenitor cells; conditions: mice; for Fold Change Compared to Time 0, Progenitors, BFU-E / Fold Change Compared to Time 0, Progenitors, CFU-GEMM / Fold Change Compared to Time 0, Progenitors, GM / Absolute Progenitors Per ML Blood, BFU-E / Absolute Progenitors Per ML Blood, CFU-GEMM / Absolute Progenitors Per ML Blood, CFU-GM: methylcellulose culture; for Absolute Number Progenitors Per ML Blood, BFU-E / Absolute Number Progenitors Per ML Blood, CFU-GEMM / Absolute Number Progenitors Per ML Blood, CFU-GM: 1 hour post administration; for Absolute Progenitors Per ML Blood, BFU-E / Absolute Progenitors Per ML Blood, CFU-GEMM / Absolute Progenitors Per ML Blood, CFU-GM: single s.c. 5 mg/Kg
[2] = test system: unseparated and low density nucleated cells; conditions: 80 μg/kg s.c.

Structure (SMILES): c1cc(CN2CCCNCCNCCCNCC2)ccc1CN1CCCNCCNCCCNCC1 [AMD3100, 1,1′-[1,4-phenylene-bis(methylene)]-bis-1,4,8,11-tetraazacyclotetradecane]
- Fold Change Compared to Time 0, Progenitors, BFU-E ([1]; Time 2′): 2.07 fold
- Fold Change Compared to Time 0, Progenitors, CFU-GEMM ([1]; Time 2′): 1.85 fold
- Fold Change Compared to Time 0, Progenitors, GM ([1]; Time 2′): 2.86 fold
- Fold Change Compared to Time 0, Progenitors, BFU-E ([1]; Time 15″): 2.72 fold
- Fold Change Compared to Time 0, Progenitors, CFU-GEMM ([1]; Time 15″): 3.51 fold
- Fold Change Compared to Time 0, Progenitors, GM ([1]; Time 15″): 2.73 fold
- Fold Change Compared to Time 0, Progenitors, BFU-E ([1]; Time 30″): 4.24 fold
- Fold Change Compared to Time 0, Progenitors, CFU-GEMM ([1]; Time 30″): 4.41 fold
- Fold Change Compared to Time 0, Progenitors, GM ([1]; Time 30″): 6.23 fold
- Absolute Number Progenitors Per ML Blood, BFU-E ([1]; single s.c. 1 mg/kg): 62 Per ML Blood
- Absolute Number Progenitors Per ML Blood, CFU-GEMM ([1]; single s.c. 1 mg/kg): 27.1 Per ML Blood
- Absolute Number Progenitors Per ML Blood, CFU-GM ([1]; single s.c. 1 mg/kg): 424 Per ML Blood
- Absolute Number Progenitors Per ML Blood, BFU-E ([1]; single s.c. 2.5 mg/kg): 98.9 Per ML Blood
- Absolute Number Progenitors Per ML Blood, CFU-GEMM ([1]; single s.c. 2.5 mg/kg): 70.6 Per ML Blood
- Absolute Number Progenitors Per ML Blood, CFU-GM ([1]; single s.c. 2.5 mg/kg): 687.6 Per ML Blood
- Absolute Progenitors Per ML Blood, BFU-E ([1]; 15″): 134.5 Per ML Blood
- Absolute Progenitors Per ML Blood, CFU-GEMM ([1]; 15″): 90.4 Per ML Blood
- Absolute Progenitors Per ML Blood, CFU-GM ([1]; 15″): 791.6 Per ML Blood
- Absolute Progenitors Per ML Blood, BFU-E ([1]; 30″): 209.3 Per ML Blood
- Absolute Progenitors Per ML Blood, CFU-GEMM ([1]; 30″): 113.5 Per ML Blood
- Absolute Progenitors Per ML Blood, CFU-GM ([1]; 30″): 1805.5 Per ML Blood
- Absolute Progenitors Per ML Blood, BFU-E ([1]; 120″): 102.3 Per ML Blood
- Absolute Progenitors Per ML Blood, CFU-GEMM ([1]; 120″): 47.6 Per ML Blood
- Absolute Progenitors Per ML Blood, CFU-GM ([1]; 120″): 828.7 Per ML Blood
- Absolute Number Progenitors Per ML Blood, BFU-E ([1]; single s.c. 5 mg/kg): 92.8 Per ML Blood
- Absolute Number Progenitors Per ML Blood, CFU-GEMM ([1]; single s.c. 5 mg/kg): 69.5 Per ML Blood
- Absolute Number Progenitors Per ML Blood, CFU-GM ([1]; single s.c. 5 mg/kg): 608.4 Per ML Blood
- Absolute Number Progenitors Per ML Blood, BFU-E ([1]; single s.c. 10 mg/kg): 120.5 Per ML Blood
- Absolute Number Progenitors Per ML Blood, CFU-GEMM ([1]; single s.c. 10 mg/kg): 79.8 Per ML Blood
- Absolute Number Progenitors Per ML Blood, CFU-GM ([1]; single s.c. 10 mg/kg): 825.6 Per ML Blood
- FOLD CHANGE COMPARED TO TIME = 0, nucleated cellularity PBL-LD ([2]; P1, T = 1 h after injection): 2.07 fold
- FOLD CHANGE COMPARED TO TIME = 0, nucleated cellularity PBL-US ([2]; P1, T = 1 h after injection): 2.54 fold
- FOLD CHANGE COMPARED TO TIME = 0, nucleated cellularity PBL-LD ([2]; P1, T = 3 h after injection): 2.83 fold
- FOLD CHANGE COMPARED TO TIME = 0, nucleated cellularity PBL-US ([2]; P1, T = 3 h after injection): 3.55 fold
- FOLD CHANGE COMPARED TO TIME = 0, nucleated cellularity PBL-LD ([2]; P1, T = 6 h after injection): 4.07 fold
- FOLD CHANGE COMPARED TO TIME = 0, nucleated cellularity PBL-US ([2]; P1, T = 6 h after injection): 3.97 fold
- FOLD CHANGE COMPARED TO TIME = 0, nucleated cellularity PBL-LD ([2]; P1, T = 9 h after injection): 3.65 fold
- FOLD CHANGE COMPARED TO TIME = 0, nucleated cellularity PBL-US ([2]; P1, T = 9 h after injection): 3.27 fold
- FOLD CHANGE COMPARED TO TIME = 0, nucleated cellularity PBL-LD ([2]; P1, T = 24 h after injection): 1.01 fold
- FOLD CHANGE COMPARED TO TIME = 0, nucleated cellularity PBL-US ([2]; P1, T = 24 h after injection): 1.21 fold
- FOLD CHANGE COMPARED TO TIME = 0, nucleated cellularity PBL-LD ([2]; P2, T = 1 h after injection): 1.99 fold
- FOLD CHANGE COMPARED TO TIME = 0, nucleated cellularity PBL-US ([2]; P2, T = 1 h after injection): 1.38 fold
- FOLD CHANGE COMPARED TO TIME = 0, nucleated cellularity PBL-LD ([2]; P2, T = 3 h after injection): 3.25 fold
- FOLD CHANGE COMPARED TO TIME = 0, nucleated cellularity PBL-US ([2]; P2, T = 3 h after injection): 2.74 fold
- FOLD CHANGE COMPARED TO TIME = 0, nucleated cellularity PBL-LD ([2]; P2, T = 6 h after injection): 3.90 fold
- FOLD CHANGE COMPARED TO TIME = 0, nucleated cellularity PBL-US ([2]; P2, T = 6 h after injection): 2.94 fold
- FOLD CHANGE COMPARED TO TIME = 0, nucleated cellularity PBL-LD ([2]; P2, T = 9 h after injection): 4.43 fold
- FOLD CHANGE COMPARED TO TIME = 0, nucleated cellularity PBL-US ([2]; P2, T = 9 h after injection): 3.30 fold
- FOLD CHANGE COMPARED TO TIME = 0, nucleated cellularity PBL-LD ([2]; P2, T = 24 h after injection): 1.71 fold
- FOLD CHANGE COMPARED TO TIME = 0, nucleated cellularity PBL-US ([2]; P2, T = 24 h after injection): 1.43 fold
- FOLD CHANGE COMPARED TO TIME = 0, nucleated cellularity PBL-LD ([2]; P3, T = 1 h after injection): 1.48 fold
- FOLD CHANGE COMPARED TO TIME = 0, nucleated cellularity PBL-US ([2]; P3, T = 1 h after injection): 1.38 fold
- FOLD CHANGE COMPARED TO TIME = 0, nucleated cellularity PBL-LD ([2]; P3, T = 3 h after injection): 2.17 fold
- FOLD CHANGE COMPARED TO TIME = 0, nucleated cellularity PBL-US ([2]; P3, T = 3 h after injection): 2.02 fold
- FOLD CHANGE COMPARED TO TIME = 0, nucleated cellularity PBL-LD ([2]; P3, T = 6 h after injection): 2.27 fold
- FOLD CHANGE COMPARED TO TIME = 0, nucleated cellularity PBL-US ([2]; P3, T = 6 h after injection): 2.74 fold
- FOLD CHANGE COMPARED TO TIME = 0, nucleated cellularity PBL-LD ([2]; P3, T = 9 h after injection): 2.47 fold
- FOLD CHANGE COMPARED TO TIME = 0, nucleated cellularity PBL-US ([2]; P3, T = 9 h after injection): 2.69 fold
- FOLD CHANGE COMPARED TO TIME = 0, nucleated cellularity PBL-LD ([2]; P3, T = 24 h after injection): 0.79 fold
- FOLD CHANGE COMPARED TO TIME = 0, nucleated cellularity PBL-US ([2]; P3, T = 24 h after injection): 0.96 fold
- FOLD CHANGE COMPARED TO TIME = 0, nucleated cellularity PBL-LD ([2]; P4, T = 1 h after injection): 1.66 fold
- FOLD CHANGE COMPARED TO TIME = 0, nucleated cellularity PBL-US ([2]; P4, T = 1 h after injection): 1.36 fold
- FOLD CHANGE COMPARED TO TIME = 0, nucleated cellularity PBL-LD ([2]; P4, T = 3 h after injection): 2.82 fold
- FOLD CHANGE COMPARED TO TIME = 0, nucleated cellularity PBL-US ([2]; P4, T = 3 h after injection): 2.46 fold
- FOLD CHANGE COMPARED TO TIME = 0, nucleated cellularity PBL-LD ([2]; P4, T = 6 h after injection): 2.78 fold
- FOLD CHANGE COMPARED TO TIME = 0, nucleated cellularity PBL-US ([2]; P4, T = 6 h after injection): 2.60 fold
- FOLD CHANGE COMPARED TO TIME = 0, nucleated cellularity PBL-LD ([2]; P4, T = 9 h after injection): 2.48 fold
- FOLD CHANGE COMPARED TO TIME = 0, nucleated cellularity PBL-US ([2]; P4, T = 9 h after injection): 2.24 fold
- FOLD CHANGE COMPARED TO TIME = 0, nucleated cellularity PBL-LD ([2]; P4, T = 24 h after injection): 0.60 fold
- FOLD CHANGE COMPARED TO TIME = 0, nucleated cellularity PBL-US ([2]; P4, T = 24 h after injection): 0.77 fold
- FOLD CHANGE COMPARED TO TIME = 0, nucleated cellularity PBL-LD ([2]; P5, T = 1 h after injection): 2.10 fold
- FOLD CHANGE COMPARED TO TIME = 0, nucleated cellularity PBL-US ([2]; P5, T = 1 h after injection): 1.76 fold
- FOLD CHANGE COMPARED TO TIME = 0, nucleated cellularity PBL-LD ([2]; P5, T = 3 h after injection): 3.20 fold
- FOLD CHANGE COMPARED TO TIME = 0, nucleated cellularity PBL-US ([2]; P5, T = 3 h after injection): 3.23 fold
- FOLD CHANGE COMPARED TO TIME = 0, nucleated cellularity PBL-LD ([2]; P5, T = 6 h after injection): 5.30 fold
- FOLD CHANGE COMPARED TO TIME = 0, nucleated cellularity PBL-US ([2]; P5, T = 6 h after injection): 4.04 fold
- FOLD CHANGE COMPARED TO TIME = 0, nucleated cellularity PBL-LD ([2]; P5, T = 9 h after injection): 5.17 fold
- FOLD CHANGE COMPARED TO TIME = 0, nucleated cellularity PBL-US ([2]; P5, T = 9 h after injection): 3.96 fold
